According to patent US20070111889A1, “6-(Aminocarbonyl-phenyl)triazolopyrimidines, methods for the production thereof, use thereof for controlling harmful fungi, and substances containing the same” (BASF Aktiengesellschaft, priority 2003, published 2007):

Assays:
Plasmopara viticola = experiment: Activity against Peronospora of vines caused by Plasmopara viticola (protective spray, potted vines); assay type: in vivo; conditions: 250 ppm; vines cultivar Riesling; inoculated the day after spraying; assessed visually; untreated plants 90% infected
Description: The active compounds were prepared as a stock solution with 0.25% by weight of active compound in acetone or DMSO. 1% by weight of the emulsifier Uniperol® EL (wetting agent having emulsifying and dispersing action based on ethoxylated alkylphenols) was added to this solution, and the mixture was diluted with water to the desired concentration.
Leaves of potted vines of the cultivar “Riesling” were sprayed to runoff point with an aqueous suspension having the concentration of active compounds stated below. The next day, the undersides of the leaves were inoculated with an aqueous zoospore suspension of Plasmopara viticola. The vines were then initially placed in a water-vapor-saturated chamber at 24° C. for 48 hours and then in a greenhouse at temperatures of between 20 and 30° C. for 5 days. After this time, the plants were again placed in a moist chamber for 16 hours to promote sporangiophore eruption. The extent of the development of the infection on the undersides of the leaves was then determined visually.

Pyrenophora teres = experiment: Activity against net blotch of barley caused by Pyrenophora teres (protective spray, barley seedlings); assay type: in vivo, Pyrenophora [syn. Drechslera] teres; conditions: 63 ppm; barley cultivar Hanna; inoculated 24 h after spraying; assessed visually after 6 days; untreated plants 90% infected
Description: The active compounds were prepared as a stock solution with 0.25% by weight of active compound in acetone or DMSO. 1% by weight of the emulsifier Uniperol® EL (wetting agent having emulsifying and dispersing action based on ethoxylated alkylphenols) was added to this solution, and the mixture was diluted with water to the desired concentration. Leaves of pot-grown barley seedlings of the cultivar “Hanna” were sprayed to runoff point with an aqueous suspensiori having the concentration of active compound stated below. 24 hours after the spray coating had dried on, the test plants were inoculated with an aqueous spore suspension of Pyrenophora [syn. Drechslera] teres, the causative agent of net blotch. The test plants were subsequently placed in a greenhouse at temperatures of between 20 and 24° C. and at a relative atmospheric humidity of 95 to 100%. After 6 days, the extent of the development of the disease was determined visually in % of infection of the total leaf area.

## CC1CCN(c2c(-c3c(F)cc(C(N)=O)cc3F)c(Cl)nc3ncnn23)CC1 [I-1, 5-chloro-6-(2,6-difluoro-4-aminocarbonylphenyl)-7-(4-methylpiperidin-1-yl)-[1,2,4]-triazolo[1,5-a]pyrimidine]
Plasmopara viticola
  infection on the undersides of the leaves: no infection
Pyrenophora teres
  infection (% of infection of the total leaf area): about 3%
